Positions of bridges follow the written chain, without caps; N, C: chain ends. Chains are numbered I, II in the order given. No end group written: not given here.
What was measured:
[1] = system: double-Ig module (Ig1-Ig2) of NCAM; experiment: Surface plasmon resonance, negative control protein; type: binding; conditions: SPR
Experimental: The binding analysis was performed using a Biacore 2000 instrument (GE Healthcare Life Sciences) that contained 150 mM NaCl as running buffer at 25°C with 10 mM sodium phosphate (pH 7.4). The flow rate was 5 μl/min during immobilization. Ilantide peptide, IL-1β or IL-1Ra was immobilized on a CM4 sensor chip according to the manufacturer’s instructions, after which the recombinant ectodomain of IL-1RI (R&D Systems) was injected. The neural cell adhesion molecule (NCAM) immunoglobulin modules 1 and 2 (Ig1 and Ig2) were used as a negative control protein [9]. The data were analyzed using nonlinear curve-fitting with the manufacturer’s software.

[2] = system: HEK-Blue IL-1β cells (IL-1RI / NF-κB); experiment: IL-1β-induced NF-κB activation, SEAP reporter; type: cell-based; conditions: 1.2 pM IL-1β, 24 hours, SEAP read at 600 nm, four independent experiments
Experimental: HEK-Blue IL-1β cells that contained an IL-1β-sensitive reporter (InvivoGen, San Diego, CA, USA) and HEK-Blue IL-6 cells that contained an IL-6-sensitive reporter (InvivoGen) were grown at 37°C with 5% CO2 in Dulbecco’s modified Eagle’s medium (DMEM) supplemented with 5% (vol/vol) fetal calf serum (FCS), 4.5 g/L glucose, 2 mM GlutaMAX medium, 100 U/ml penicillin, 100 μg/ml streptomycin (all obtained from Gibco BRL/Life Technologies, Taastrup, Denmark), 100 μg/ml zeocin, 200 μg/ml hygromycin and 100 μg/ml Normocin (all purchased from InvivoGen).
HEK-Blue IL-1β cells allow the monitoring of the activation of the NF-κB pathway specifically in response to IL-1β. They express a NF-κB-inducible secreted embryonic alkaline phosphatase (SEAP) reporter gene. The binding of IL-1β to its receptor IL-1RI on the surface of HEK-Blue IL-1β cells triggers a signaling cascade that leads to the activation NF-κB and the subsequent production of SEAP. HEK-Blue IL-1β cells were grown as described above. The cells were seeded onto a 96-well plate at a density 3.5 × 10^5 cells/ml. For the NF-κB activation assay, the cells were treated with 1.2 pM IL-1β alone or together with sIL-1RI, IL-1Ra or various concentrations of Ilantide. After 24 hours of incubation at 37°C, 150 μl of the cell supernatants were added to each well of a 96-well plate together with 50 μl of QUANTI-Blue (InvivoGen), incubated at 37°C for 40 minutes and measured in an enzyme-linked immunosorbent assay (ELISA) reader at 600 nm to determine the expression levels of reporter genes activated by NF-κB.

[3] = system: Cerebellar granule neurons; experiment: Survival of cerebellar granule neurons induced to undergo apoptosis by low potassium; type: cell-based, rat; conditions: 5 mM KCl, survival estimated 48 hours later
Experimental: (§1) Cerebellar granule neurons (CGNs) were prepared from 7-day-old Wistar rats (from Charles River Laboratories, Sulzfeld, Germany; or from Hygind Møllegård Erik Møllegaard Hansen, Ejby, Denmark) as previously described. Briefly, the cerebella were cleared of meninges and blood vessels, roughly homogenized by chopping and trypsinized. The cells were washed in the presence of DNAse I and soybean trypsin inhibitor (Sigma-Aldrich, St Louis, MO, USA), and cellular debris was pelleted by centrifugation. The fibroblastoid mouse cell line L929 (LVN; European Collection of Cell Cultures, Porton Down, UK) was routinely grown at 37°C with 5% CO2 in DMEM supplemented with 10% (vol/vol) FCS, 2 mM GlutaMAX, 100 U/ml penicillin and 100 μg/ml streptomycin.
(§2) Cerebellar granule neurons were plated at a density of 1 × 10^5 cells/cm^2 on poly-L-lysine-coated, eight-well Permanox Lab-Tek chamber slides (Nunc) in Neurobasal-A medium supplemented with 2% (vol/vol) B27 (Gibco BRL), 0.5% (vol/vol) GlutaMAX, 100 U/ml penicillin and 100 μg/ml streptomycin. The CGN survival assay was performed as previously described. The neurite outgrowth assay was also performed as previously described.
Figure 5 Effect of Ilantide and interleukin 1 receptor antagonist on survival of cerebellar granule neurons induced to undergo apoptosis. The neurons were allowed to differentiate for 7 days in a high-potassium (40 mM) medium before apoptosis was induced by changing to a low-potassium medium (5 mM). Survival was estimated 48 hours later. (A) The effect of insulin-like growth factor 1 (IGF-1), interleukin 1 receptor antagonist (IL-1Ra) and IL-1β on cerebellar granule neuron (CGN) apoptosis induced by 5 mM KCl. (B) The effect of Ilantide-m on CGN apoptosis induced by 5 mM KCl. […] The results from at least four independent experiments are expressed as mean ± SEM with untreated cultures induced to undergo apoptosis by 5 mM KCl set at 100%. *P < 0.05 and **P < 0.01 compared with untreated cultures induced to undergo apoptosis (one-way analysis of variance followed by Newman-Keuls post hoc test).

[4] = system: Cerebellar granule neurons; experiment: Neurite outgrowth from cerebellar granule neurons; type: cell-based, rat; conditions: 7-day-old CGNs grown on fibroblast cells, 24 hours
Experimental: as §1, §2
Figure 6 Effect of Ilantide on neurite outgrowth from cerebellar granule neurons. Cerebellar granule neuron cultures were treated with interleukin 1 receptor antagonist (IL-1Ra) (A), soluble interleukin 1 receptor type I (sIL-1RI) (B), Ilantide-t (C) or IL-1β (D) for 24 hours. The cultures were fixed and immunostained with rabbit anti-rat growth-associated protein 43 (anti-GAP-43) primary antibodies and then with secondary Alexa Fluor 488 goat anti-rabbit antibodies. (E) Effect of IL-1β on neurite outgrowth induced by IL-1Ra. (F) Effect of IL-1β on neurite outgrowth induced by Ilantide-t. The results from three to four independent experiments are expressed as percentage ± SEM with untreated controls set at 100%, corresponding to an average neurite length of 19.3 ± 4.1 μm. *P < 0.05 and **P < 0.01 compared with untreated controls (A to D) or cultures treated with either IL-1Ra or Ilantide alone (E and F) by one-way analysis of variance followed by the Newman-Keuls post hoc test).

| Substance | Binding to double-Ig module of NCAM (negative control) [1] | Inhibition of NF-κB activation induced by IL-1β [2] | CGN survival after potassium withdrawal [3] | Neurite outgrowth from CGNs [4] |
| --- | --- | --- | --- | --- |
| IL-1Ra: recombinant interleukin 1 receptor antagonist purchased from R&D Systems | no significant binding | dose-dependently inhibited | concentration-dependently promoted CGN survival | significantly induced neurite outgrowth |
| I: SGRKSSKMQAKK-NH2 / II: SGRKSSKMQAK / III: SGRKSSKMQA / IV: SGRKSSKMQA (amide I:11-IV:C, I:12-II:C, II:11-III:C; C-terminus assumed) [Ilantide-t] | no significant binding | dose-dependently inhibited | concentration-dependently promoted CGN survival | significantly induced neurite outgrowth |

— paper PMC3923439, “Anti-inflammatory properties of a novel peptide interleukin 1 receptor antagonist” (Journal of Neuroinflammation, 2014)
